Experimental data reported in US20260297105A1, “RAF-MEK PROTEIN COMPLEX MODULATORS AND METHODS OF USE THEREOF” (GANDEEVA THERAPEUTICS, INC., priority 2023, published 2026).
pEC50, pIC50: −log10 of the molar value. Read-outs that look alike come from different tables or passages of the source.

Key:
MEK1 = biological target: T1, MEK1 (Homo sapiens, UniProt Q02750); test: MEK1 kinase cascade assay (ADP-Glo), inhibition of MEK1 kinase activity; type: biochemical; conditions: 25 nM BRAF, 6.25 nM MEK1, 0.5 μM ERK, 1 mM ATP; 20 min preincubation, 1 hr at 25° C.; read-out: BRAF ADP Glo kinase assay V3 (IC50)
T1 construct: purchased SignalChem M02-14H
Method in brief: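 Cascade format with ADP-Glo read-out: BRAF (25 nM) and compound, 1% DMSO, 20 mins at 25° C, then MEK1 6.25 nM, ERK1 0.5 μM, ATP 1 mM for 1 hr at 25° C in HEPES pH 7.5 buffer with MgCl2, CHAPS and DTT. Percent inhibition, scaled between DMSO and 1 μM Trametinib, was fit by 4-parameter logistic to give IC50 (2 replicate wells).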

BRAF-MEK1 = test: BRAF-MEK TR-FRET assay, stabilization of MEK1 and BRAF interaction; type: binding; conditions: 4 nM BRAF, 10 nM MEK, 100 μM ATP, 1 hr at 25° C., read-out: BRAF-MEK TR-FRET Assay (EC50, fold stabilization)
Description: Protein expression and purification: BRAF (445-723) with N-term His-tag and C-term StrepII tag was expressed using the Expi293 system (ThermoFisher) and purified using Strep-Tactin® XT-Superflow (IBA) chromatography. ERK1 (full-length) with N-term His-tag was expressed in Rosetta DE3 cells (Millipore) and purified using HisTrap HP (Cytiva) and Superdex 200 (Cytiva) column chromatography. Full-length MEK1 for TR-FRET assays with N-term His-tag was expressed in BL21DE3 cells (ThermoFisher) and purified using HisTrap HP (Cytiva) and Superdex 200 (Cytiva) column chromatography.
Efficacy of exemplary compounds in stabilization of MEK1 and BRAF interaction: Compound stabilization of BRAF-MEK interaction was evaluated using TR-FRET (Time Resolved Fluorescence Energy Transfer). The FRET assay consisted of His-tagged MEK1 (produced in-house), GST-tagged BRAF (SignalChem, B08-11G), Anti His-Tb Cryptate donor, and Anti GST-XL665 acceptor fluorophores (PerkinElmer) to generate FRET signal upon BRAF-MEK1 binding. Compounds were prepared from DMSO stocks in assay buffer (50 mM Tris pH 7.5, 150 mM NaCl, 1 mM DTT, 0.05% Tween-20, 5 mM MgCl2, and 100 μM ATP) and incubated with 4 nM BRAF and 10 nM MEK for 1 hr at 25° C. 1 ng Anti His-Tb Cryptate/20 ng Anti GST-XL665 premix was then added and incubated for 1 hr at 25° C. TR-FRET was measured using Cytation5 microplate reader (Agilent) using Ex/Em=340/620 nm and Ex/Em=340/665 nm to determine the FRET ratio. Fold stabilization was calculated as FRET signal of treated well/DMSO control. Fold stabilization as a function of compound concentration from 2 replicate wells was fit with a 4-parameter logistic curve equation using GraphPad Prism or CDD Vault to derive EC50 values.
In this table, for the BRAF ADP Glo kinase assay, “A” indicates IC50 of less than 5 nM; “B” indicates IC50 of between 5 nM to 50 nM; and “C” indicates IC50 of between 50 nM to 500 nM. “D” indicates IC50 of greater than 500 nM. For the BRAF-MEK TR-FRET assay, “A” indicates EC50 of less than 50 nM; “B” indicates EC50 of between 50 nM to 200 nM; and “C” indicates EC50 of between 200 nM to 1 μM. “D′” indicates EC50 of greater than 1 μM. For the AlphaLisa P-ERK assay, “A” indicates IC50 of less than 1 nM; “B” indicates IC50 of between 1 nM to 10 nM; and “C” indicates IC50 of between 10 nM to 100 nM. “D” indicates IC50 of greater than 100 nM. For the cell viability assay, “A” indicates IC50 of less than 1 nM; “B” indicates IC50 of between 1 nM to 10 nM; and “C” indicates IC50 of between 10 nM to 100 nM. “D” indicates IC50 of greater than 100 nM.

T1 sequence (Q02750 whole entry): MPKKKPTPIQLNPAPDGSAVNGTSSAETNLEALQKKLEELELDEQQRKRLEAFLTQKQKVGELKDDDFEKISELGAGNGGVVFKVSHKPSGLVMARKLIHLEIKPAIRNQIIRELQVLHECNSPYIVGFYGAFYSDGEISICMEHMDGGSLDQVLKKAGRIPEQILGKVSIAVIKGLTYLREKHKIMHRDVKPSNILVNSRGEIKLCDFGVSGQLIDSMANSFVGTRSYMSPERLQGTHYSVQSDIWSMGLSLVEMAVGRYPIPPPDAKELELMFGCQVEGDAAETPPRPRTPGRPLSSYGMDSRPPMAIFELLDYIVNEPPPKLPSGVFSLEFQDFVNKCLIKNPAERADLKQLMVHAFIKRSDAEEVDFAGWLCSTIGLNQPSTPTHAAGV
T1 sequence (P15056 445-723 partner limits assumed): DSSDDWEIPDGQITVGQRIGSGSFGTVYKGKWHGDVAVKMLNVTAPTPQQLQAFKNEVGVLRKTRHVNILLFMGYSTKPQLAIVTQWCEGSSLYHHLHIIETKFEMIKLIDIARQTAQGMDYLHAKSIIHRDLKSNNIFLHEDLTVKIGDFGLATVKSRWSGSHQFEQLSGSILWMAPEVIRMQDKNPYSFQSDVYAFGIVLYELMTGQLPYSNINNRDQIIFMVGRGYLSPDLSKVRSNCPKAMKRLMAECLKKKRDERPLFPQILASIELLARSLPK

**Q.** With `CN(C)S(=O)(=O)Nc1cccc(CN2C(=O)Oc3cc(Oc4cccnn4)ccc3C23CCC3)c1F` [Compound 25, 3-{[3-(dimethylaminosulfonylamino)-2-fluorophenyl]methyl}-7-(3-pyridazinyloxy)-2H,3H-spiro[1,3-benzoxazine-4,1′-cyclobutan]-2-one] as the molecule, how does the pIC50 (MEK1) read?
**A.** > 8.30

**Q.** And the pEC50 (BRAF-MEK1)?
**A.** > 7.30

**Q.** What does the source list for `CNS(=O)(=O)Nc1nccc(CN2C(=O)Oc3cc(Oc4ncco4)cc(F)c3C23COC3)c1F` [Compound 168, 5-fluoro-3-{[3-fluoro-2-(methylaminosulfonylamino)-4-pyridyl]methyl}-7-(1,3-oxazol-2-yloxy)-2H,3H-spiro[1,3-benzoxazine-4,3′-oxetan]-2-one]?
**A.** pIC50 (MEK1): 7.30 to 8.30; pEC50 (BRAF-MEK1): 6.00 to 6.70

**Q.** What does the source list for `O=C1Oc2c(ccc(Oc3cccnn3)c2F)C2(CCC2)N1Cc1ccnc(NS(=O)(=O)C2CC2)c1F` [Compound 184, (cyclopropylsulfonyl)[3-fluoro-4-({8-fluoro-2-oxo-7-(3-pyridazinyloxy)-2H,3H-spiro[1,3-benzoxazine-4,1′-cyclobutan]-3-yl}methyl)-2-pyridyl]amine]?
**A.** pIC50 (MEK1): 6.30 to 7.30; pEC50 (BRAF-MEK1): 6.70 to 7.30

**Q.** `CNS(=O)(=O)Nc1cccc(CN2C(=O)Oc3cc(OC(=O)N(C)C)ccc3C23CNC3)c1F` [Compound 49] was tested. Which pIC50 (MEK1) did it give?
**A.** 7.30 to 8.30

**Q.** What about the pEC50 (BRAF-MEK1) of the same molecule?
**A.** 6.00 to 6.70

**Q.** `O=C1Oc2c(ccc(Oc3nccnn3)c2F)C2(CCC2)N1Cc1ccnc(NS(=O)(=O)C2CC2)c1F` [Compound 187, (cyclopropylsulfonyl)[3-fluoro-4-({8-fluoro-2-oxo-7-(1,2,4-triazin-3-yloxy)-2H,3H-spiro[1,3-benzoxazine-4,1′-cyclobutan]-3-yl}methyl)-2-pyridyl]amine] was tested. Which pIC50 (MEK1) did it give?
**A.** 7.30 to 8.30

**Q.** What about the pEC50 (BRAF-MEK1) of the same molecule?
**A.** 6.70 to 7.30

**Q.** How did the pIC50 (MEK1) turn out when `CNS(=O)(=O)Nc1nccc(CN2C(=O)Oc3cc(Oc4nccnn4)cnc3[C@@H]2C)c1F` (stereo in doubt) [Compound 198, 3-{[3-fluoro-2-(methylaminosulfonylamino)-4-pyridyl]methyl}-4-methyl-7-(1,2,4-triazin-3-yloxy)-3,4-dihydro-2H-1-oxa-3,5-diazanaphthalen-2-one] was run?
**A.** 7.30 to 8.30

**Q.** And the pEC50 (BRAF-MEK1; 60 min)?
**A.** > 7.30

**Q.** Which results are given for `[2H]C1([2H])c2ccc(Oc3nccnn3)cc2OC(=O)N1Cc1cccc(NS(=O)(=O)NC)c1F` [Compound 31, 3-({2-fluoro-3-[(methylsulfamoyl)amino]phenyl}methyl)-7-(1,2,4-triazin-3-yloxy)-3,4-dihydro(4,4-^2 H2)-2H-1,3-benzoxazin-2-one]?
**A.** pIC50 (MEK1): 7.30 to 8.30; pEC50 (BRAF-MEK1): > 7.30

**Q.** With `CN(C)S(=O)(=O)Nc1nccc(CN2C(=O)Oc3cc(Oc4cccnn4)ccc3C23CCC3)c1F` [Compound 181, 3-{[2-(dimethylaminosulfonylamino)-3-fluoro-4-pyridyl]methyl}-7-(3-pyridazinyloxy)-2H,3H-spiro[1,3-benzoxazine-4,1′-cyclobutan]-2-one] as the molecule, how does the pIC50 (MEK1) read?
**A.** 7.30 to 8.30

**Q.** What about the pEC50 (BRAF-MEK1) of the same molecule?
**A.** 6.00 to 6.70

**Q.** With `CNS(=O)(=O)Nc1cccc(CN2C(=O)Oc3c(ccc(Oc4ncco4)c3F)[C@@H]2C)c1F` (single isomer, unassigned) [Compound 89, (S)-8-fluoro-3-({2-fluoro-3-(methylsulfamoyl)amino]phenyl}methyl)-4-methyl-7-(1,3-oxazol-2-yloxy)-3,4-dihydro-2H-1,3-benzoxazin-2-one or (R)-8-fluoro-3-({2-fluoro-3-(methylsulfamoyl)amino]phenyl}methyl)-4-methyl-7-(1,3-oxazol-2-yloxy)-3,4-dihydro-2H-1,3-benzoxazin-2-one] as the molecule, how does the pIC50 (MEK1) read?
**A.** > 8.30

**Q.** And the pEC50 (BRAF-MEK1)?
**A.** 6.00 to 6.70

**Q.** What does the source list for `C[C@H]1c2ccc(Oc3cccnn3)c(F)c2OC(=O)N1Cc1cccc(NS(=O)(=O)N(C)C)c1F` (single isomer, unassigned) [Compound 44]?
**A.** pIC50 (MEK1): > 8.30; pEC50 (BRAF-MEK1): 6.00 to 6.70

**Q.** How did the pIC50 (MEK1) turn out when `CNS(=O)(=O)Nc1cccc(CN2C(=O)Oc3cc(OC(=O)N(C)C)ccc3C23CN(C)C3)c1F` [Compound 48, 3′-(2-fluoro-3-((N-methylsulfamoyl)amino)benzyl)-1-methyl-2′-oxo-2′,3′-dihydrospiro[azetidine-3,4′-benzo[e][1,3]oxazin]-7′-yl dimethylcarbamate] was run?
**A.** 7.30 to 8.30

**Q.** And the pEC50 (BRAF-MEK1)?
**A.** 6.00 to 6.70

**Q.** With `CNS(=O)(=O)Nc1cccc(CN2Cc3ccc(OC(=O)N(C)C)cc3OC2=O)c1F` [Compound 156, 3-(2-fluoro-3-((N-methylsulfamoyl)amino)benzyl)-2-oxo-3,4-dihydro-2H-benzo[e][1,3]oxazin-7-yl dimethylcarbamate] as the molecule, how does the pIC50 (MEK1) read?
**A.** 7.30 to 8.30

**Q.** What about the pEC50 (BRAF-MEK1) of the same molecule?
**A.** 6.00 to 6.70

**Q.** What does the source list for `CNS(=O)(=O)Nc1cccc(CN2Cc3cc(F)c(OC(=O)N(C)C)cc3OC2=O)c1F` [Compound 120, 6-fluoro-3-(2-fluoro-3-((N-methylsulfamoyl)amino)benzyl)-2-oxo-3,4-dihydro-2H-benzo[e][1,3]oxazin-7-yl dimethylcarbamate]?
**A.** pIC50 (MEK1): > 8.30; pEC50 (BRAF-MEK1): 6.70 to 7.30

**Q.** How did the pIC50 (MEK1) turn out when `CN(C)C(=O)Oc1ccc2c(c1)OC(=O)N(Cc1cccc(NS(=O)(=O)N3CCC(C(N)=O)C3)c1F)C2` (stereo not shown) [Compound 28, 3-[(3-{[(3-carbamoylpyrrolidin-1-yl)sulfonyl]amino}-2-fluorophenyl)methyl]-2-oxo-3,4-dihydro-2H-1,3-benzoxazin-7-yl N,N-dimethylcarbamate] was run?
**A.** 7.30 to 8.30

**Q.** What about the pEC50 (BRAF-MEK1) of the same molecule?
**A.** 6.00 to 6.70

**Q.** With `CNS(=O)(=O)Nc1nccc(CN2C(=O)Oc3cc(Oc4ncco4)c(F)cc3C2C)c1F` (single isomer, unassigned) [Compound 186, 6-fluoro-3-{[3-fluoro-2-(methylaminosulfonylamino)-4-pyridyl]methyl}-4-methyl-7-(1,3-oxazol-2-yloxy)-3,4-dihydro-2H-1,3-benzoxazin-2-one] as the molecule, how does the pIC50 (MEK1) read?
**A.** 6.30 to 7.30

**Q.** And the pEC50 (BRAF-MEK1; 60 min)?
**A.** 6.00 to 6.70

**Q.** With `CNS(=O)(=O)Nc1cccc(CN2C(=O)Oc3cc(OC(=O)N(C)C)c(Cl)cc3[C@H]2C)c1F` [Compound 107, (R)-6-chloro-7-(dimethylaminocarbonyloxy)-3-{[2-fluoro-3-(methylaminosulfonylamino)phenyl]methyl}-4-methyl-3,4-dihydro-2H-1,3-benzoxazin-2-one] as the molecule, how does the pIC50 (MEK1) read?
**A.** 7.30 to 8.30

**Q.** And the pEC50 (BRAF-MEK1)?
**A.** 6.00 to 6.70

**Q.** Which results are given for `C[C@H]1c2c(F)cc(Oc3cccnn3)cc2OC(=O)N1Cc1cccc(NS(=O)(=O)C2CC2)c1F` (single isomer, unassigned) [Compound 55]?
**A.** pIC50 (MEK1): 7.30 to 8.30; pEC50 (BRAF-MEK1): 6.00 to 6.70

**Q.** `CNS(=O)(=O)Nc1cccc(CN2C(=O)Oc3cc(Oc4ncco4)cc(F)c3[C@@H]2C)c1F` (single isomer, unassigned) [Compound 86, (S)-5-fluoro-3-({2-fluoro-3-(methylsulfamoyl)amino]phenyl}methyl)-4-methyl-7-(1,3-oxazol-2-yloxy)-3,4-dihydro-2H-1,3-benzoxazin-2-one or (R)-5-fluoro-3-({2-fluoro-3-(methylsulfamoyl)amino]phenyl}methyl)-4-methyl-7-(1,3-oxazol-2-yloxy)-3,4-dihydro-2H-1,3-benzoxazin-2-one] was tested. Which pIC50 (MEK1) did it give?
**A.** 7.30 to 8.30

**Q.** What about the pEC50 (BRAF-MEK1) of the same molecule?
**A.** 6.00 to 6.70

**Q.** How did the pIC50 (MEK1) turn out when `CNS(=O)(=O)Nc1nccc(CN2C(=O)Oc3cc(Oc4cccnn4)ccc3C23COC3)c1F` [Compound 24, 3-({3-fluoro-2-[(methylsulfamoyl)amino]pyridin-4-yl}methyl)-7-(pyridazin-3-yloxy)-2,3-dihydrospiro[1,3-benzoxazine-4,3′-oxetan]-2-one] was run?
**A.** 7.30 to 8.30

**Q.** And the pEC50 (BRAF-MEK1)?
**A.** 6.70 to 7.30

**Q.** `CNS(=O)(=O)Nc1cc(F)cc(CN2Cc3ccc(Oc4cccnn4)cc3OC2=O)c1F` [Compound 200, 3-{[2,5-difluoro-3-(methylaminosulfonylamino)phenyl]methyl}-7-(3-pyridazinyloxy)-3,4-dihydro-2H-1,3-benzoxazin-2-one] was tested. Which pIC50 (MEK1) did it give?
**A.** 7.30 to 8.30

**Q.** What about the pEC50 (BRAF-MEK1) of the same molecule?
**A.** 6.00 to 6.70
